Measured values from patent publication US4600537A, “Preparation of (±) 4-demethoxy-6 (and-11-)-deoxydaunomycinone” (Farmitalia Carlo Erba S.p.A., priority 1981, dated 1986).
Converted amounts (≈) assume the structure as drawn. “And” between values parts separate entries of the source, which are not always exact repeats. Identical values can stand only once.

Tests used:
Hela cells = experiment: Effect on Hela cells cloning activity (cytotoxic activity in vitro); type: cell-based; conditions: treatment for 24 hours; for IC50: read-out: Effect on Hela cells cloning activity, ID50; for Effect on Hela cells cloning activity, %: 1440 min; for activity at 0.1 µg/mL: dose 100 ng/ml
Description: The biological activity of the following compound was tested against Hela cells in vitro: […]

P388 ascitic leukemia = experiment: Effect against P388 leukemia in mice; design: LTS (long term survivors) / Toxic deaths (evaluated on the basis of zooptic findings): dose or concentration left out as unconfirmed; conditions: for antitumor activity (in words): P388 ascitic leukemia in mice
Description: The activity of the compounds 4-demethoxy-4'-epi-11-deoxydaunorubicin and 4-demethoxy-deoxy-daunorubicin was also tested against P388 ascitic leukemia in mice.

[1] = Homo sapiens, HeLa, 24 h, dose 6.2 ng/ml
[2] = Homo sapiens, HeLa, 24 h, dose 25 ng/ml

| Compound | IC50 (Hela cells; Homo sapiens, HeLa) [µg/mL] | Effect on Hela cells cloning activity, % (Hela cells; dose 6.2 ng/ml) | antitumor activity (in words) (P388 ascitic leukemia) | LTS (long term survivors) (P388 ascitic leukemia; dose 6.6, ip on day 1) | Toxic deaths (evaluated on the basis of zooptic findings) (P388 ascitic leukemia; dose 6.6, ip on day 1) | LTS (long term survivors) (P388 ascitic leukemia; dose 10, ip on day 1) | Toxic deaths (evaluated on the basis of zooptic findings) (P388 ascitic leukemia; dose 10, ip on day 1) | LTS (long term survivors) (P388 ascitic leukemia; dose 4.4, ip on day 1) | Toxic deaths (evaluated on the basis of zooptic findings) (P388 ascitic leukemia; dose 4.4, ip on day 1) | activity at 0.0062 µg/mL (Hela cells; [1]) [%] | activity at 0.025 µg/mL (Hela cells; [2]) [%] | activity at 0.1 µg/mL (Hela cells; Homo sapiens, HeLa, 24 h) [%] | other results |
| --- | --- | --- | --- | --- | --- | --- | --- | --- | --- | --- | --- | --- | --- |
| CC(=O)[C@]1(O)Cc2cc3c(c(O)c2[C@@H](O[C@H]2C[C@H](N)[C@@H](O)[C@H](C)O2)C1)C(=O)c1ccccc1C3=O [4-demethoxy-4'-epi-11-deoxydaunorubicin] | 0.04 (≈ 0.0831 µM) | 60% and 105% | exert antitumor activity | 0/10 | 0/10 | 0/10 | 0/10 |  |  |  |  |  | Effect on Hela cells cloning activity, % (Hela cells; dose 1.5 ng/ml): 78% and 109%; Effect on Hela cells cloning activity, % (Hela cells; dose 25 ng/ml): 56% and 82%; LTS (long term survivors) (P388 ascitic leukemia; dose 15, ip on day 1): 0/10; Toxic deaths (evaluated on the basis of zooptic findings) (P388 ascitic leukemia; dose 15, ip on day 1): 0/10 |
| 4-demethoxy-deoxy-daunorubicin |  |  | exert antitumor activity | 0/10 | 7/10 | 0/10 | 8/10 | 0/10 | 0/10 |  |  |  |  |
| CC(=O)[C@]1(O)Cc2c(cc3c(c2O)C(=O)c2ccccc2C3=O)[C@@H](O[C@H]2C[C@H](N)[C@H](O)[C@H](C)O2)C1 [4-demethoxy-6-deoxydaunorubicin] | 0.017 (≈ 0.0353 µM) |  |  |  |  |  |  |  |  |  |  |  | activity at 0.005 µg/mL (Hela cells; Homo sapiens, HeLa, 24 h, dose 5 ng/ml): 119%; activity at 0.01 µg/mL (Hela cells; Homo sapiens, HeLa, 24 h, dose 10 ng/ml): 73%; activity at 0.05 µg/mL (Hela cells; Homo sapiens, HeLa, 24 h, dose 50 ng/ml): 4%; activity at 0.25 µg/mL (Hela cells; Homo sapiens, HeLa, 24 h, dose 250 ng/ml): 0% |
| CC(=O)[C@]1(O)Cc2cc3c(c(O)c2[C@@H](O[C@H]2C[C@H](N)[C@H](O)[C@H](C)O2)C1)C(=O)c1ccccc1C3=O [4-demethoxy-11-deoxydaunorubicin] | 0.025 (≈ 0.0519 µM) |  |  |  |  |  |  |  |  | 112 | 50 | 0 |  |
| C[C@@H]1O[C@@H](O[C@H]2C[C@](O)(C(=O)CO)Cc3cc4c(c(O)c32)C(=O)c2ccccc2C4=O)C[C@H](N)[C@H]1O [4-demethoxy-11-deoxy-4'-epidoxorubicin] | 0.02 (≈ 0.0402 µM) |  |  |  |  |  |  |  |  | 100 | 33 | 1 | activity at 0.4 µg/mL (Hela cells; Homo sapiens, HeLa, 24 h, dose 400 ng/ml): 0% |
| COc1cccc2c1C(=O)c1c(O)c3c(c(O)c1C2=O)C[C@@](O)(C(C)=O)C[C@@H]3O[C@H]1C[C@H](N)[C@H](O)[C@H](C)O1 [Daunorubicin, reference compound] | 0.015 (≈ 0.0284 µM) | 86% and 150% and 93% and 101% |  | 0/10 | 3/10 |  |  | 0/10 | 0/10 |  |  |  | activity at 0.0031 µg/mL (Hela cells; Homo sapiens, HeLa, 24 h, dose 3.1 ng/ml): 104%; activity at 0.0125 µg/mL (Hela cells; Homo sapiens, HeLa, 24 h, dose 12.5 ng/ml): 65%; Effect on Hela cells cloning activity, % (Hela cells; dose 3.1 ng/ml): 115%; Effect on Hela cells cloning activity, % (Hela cells; dose 12.5 ng/ml): 83% and 80% and 77% and 79%; LTS (long term survivors) (P388 ascitic leukemia; dose 2.9, ip on day 1): 0/10; Toxic deaths (evaluated on the basis of zooptic findings) (P388 ascitic leukemia; dose 2.9, ip on day 1): 0/10 |
